In brackets after ≈: the same amount, converted by molar mass. Like-named read-outs stand apart in the source and are kept apart here. Each block holds one compound with its values, some of them ahead of it.
Experiments:
[1] = test system: total proteases production in MRSA USA300; test: Inhibition of staphylococcal total proteases production, skimmed milk method; assay type: cell-based, Staphylococcus aureus; conditions: MRSA USA300, 0.25×MIC, untreated = 100%
Experimental: The modified skimmed milk method was utilized to investigate the protease inhibitory activities of BHS compounds as described previously. In brief, overnight culture of MRSA300 in TSB, with and without subinhibitory concentrations of compounds (in triplicate), was centrifuged at 14000×g for 10 minutes. Then, a total volume of 500 μL of culture supernatant was incubated with 1 mL skimmed milk (1.25%) at 37° C. for 1 hour. Afterwards, the OD600 was measured to indicate the degree of clearance of skimmed milk. Higher OD values indicate lower proteolytic activity and greater protease inhibitory activity.
FIG. 4. Influence of BHS compounds on the staphylococcal total protease production. OD600 was measured following overnight culturing of MRSA USA300 in TSB in presence and absence of 0.25×MIC of 148, 149, 155, 158 and vancomycin followed by incubation of supernatants with skim milk for 1 hour at 37° C. The Data are presented as percent production (means±standard deviation). DMSO (the solvent for the compounds that served as a negative control). Vancomycin served as the control antibiotic. The values represent an average (means±standard deviation) of four samples analyzed for each compound/antibiotic. Error bars represent standard deviation values. An asterisk (*) denotes statistical significance (P<0.05) between results for compounds 148, 149, 155, 158 and vancomycin analyzed via unpaired t test ([…]).

[2] = test system: Staphylococcus aureus NRS384 (MRSA USA300); test: Initial MIC screening, broth microdilution (CLSI); assay type: cell-based; conditions: for potency compared with control antibiotic: MRSA USA300, Table 1 assay; for MIC: Staphylococcus aureus NRS384 (MRSA USA300), broth microdilution, visual reading
Experimental: Method: The minimum inhibitory concentration (MIC) of the compounds 1-187, and control antibiotics (vancomycin, linezolid) was determined using the broth microdilution method against methicillin-resistant Staphylococcus aureus (MRSA) USA 300 using the broth microdilution method according to the guidelines outlined by the Clinical and Laboratory Standards Institute (CLSI). MRSA strain was cultivated on Tryptic soy agar plates and let grow for 24 hours at 37° C. under aerobic conditions. Bacterial suspension equivalent to 0.5 McFarland standard was prepared and diluted in cation-adjusted Mueller-Hinton broth (CAMHB) to attain a bacterial concentration of 5×10^5 CFU/ml and seeded in 96-well plates. The desired concentrations of each drug and compound were added in the first row of the 96-well plates and serially diluted to achieve a concentration gradient from 64 μg/ml to 0.5 μg/mL.

MRSA NRS 123 = test: MIC, Gram-positive panel; assay type: cell-based; conditions: Staphylococcus aureus; MRSA NRS 123; read-out: MIC
Experimental: (§1) Next, the spectrum of antibacterial activity of compounds 144, 148, 149, 151, 155, 158, and 187 was examined against a panel of clinically relevant Gram-positive bacterial pathogens including methicillin-resistant Staphylococcus aureus (MRSA), vancomycin-resistant Staphylococcus aureus (VRSA), vancomycin-resistant Enterococcus faecalis and Enterococcus faecium (VRE), and Streptococcus pneumoniae. Bacterial strains were grown aerobically overnight on tryptone soya agar plates at 37° C. Afterwards, a bacterial solution equivalent to 0.5 McFarland standard was prepared and diluted in cation-adjusted Mueller-Hinton broth (CAMHB) (for staphylococci). Enterococci and Streptococci were diluted in tryptone soya broth (TSB) to achieve a bacterial concentration of about 5×10^5 CFU/mL and seeded in 96-well plates. Compounds and control drugs were added in the first row of 96-well plates and serially diluted with media containing bacteria. Plates were then, incubated aerobically at 37° C. for 18-20 hours (except for S. pneumoniae, which was incubated at 37° C. in presence of 5% CO2 for 18-20 hours).

MRSA NRS 385 = test: MIC, Gram-positive panel; assay type: cell-based; conditions: Staphylococcus aureus; MRSA NRS 385; read-out: MIC
Experimental: as §1

VRSA 10 = test: MIC, Gram-positive panel; assay type: cell-based; conditions: Staphylococcus aureus; VRSA 10; read-out: MIC
Experimental: as §1

MRSA NRS 386 = test: MIC, Gram-positive panel; assay type: cell-based; conditions: Staphylococcus aureus; MRSA NRS 386; read-out: MIC
Experimental: as §1

S. pneumoniae ATCC 51916 = test: MIC, Gram-positive panel; assay type: cell-based; conditions: Streptococcus pneumoniae, ATCC51916; S. pneumoniae ATCC 51916; read-out: MIC
Experimental: as §1

[3] = test system: Methicillin-resistant S. epidermidis NRS101; test: MIC, Gram-positive panel; assay type: cell-based; conditions: Staphylococcus epidermidis; Methicillin-resistant S. epidermidis NRS101; read-out: MIC
Experimental: as §1

MRSA NRS 119 = test: MIC, Gram-positive panel; assay type: cell-based; conditions: Staphylococcus aureus; MRSA NRS 119; read-out: MIC
Experimental: as §1

[4] = test system: Enterococcus faecium ATCC 700221 (VRE); test: MIC, Gram-positive panel; assay type: cell-based; conditions: Enterococcus faecium ATCC 700221 (VRE); read-out: MIC
Experimental: as §1

[5] = test system: Enterococcus faecalis ATCC 51299 (VRE); test: MIC, Gram-positive panel; assay type: cell-based; conditions: Enterococcus faecalis ATCC 51299 (VRE); read-out: MIC
Experimental: as §1

VRSA 12 = test: MIC, Gram-positive panel; assay type: cell-based; conditions: Staphylococcus aureus; VRSA 12; read-out: MIC
Experimental: as §1

S. aureus ATCC 6538 = test: MIC, Gram-positive panel; assay type: cell-based; conditions: Staphylococcus aureus, ATCC6538; S. aureus ATCC 6538; read-out: MIC
Experimental: as §1

S. aureus NRS 107 = test: MIC, Gram-positive panel; assay type: cell-based; conditions: Staphylococcus aureus, NRS107; S. aureus NRS 107; read-out: MIC
Experimental: as §1

[6] = test system: Methicillin-resistant S. pneumoniae ATCC 700677; test: MIC, Gram-positive panel; assay type: cell-based; conditions: Streptococcus pneumoniae, ATCC700677; Methicillin-resistant S. pneumoniae ATCC 700677; read-out: MIC
Experimental: as §1

MRSA USA 400 = test: Time-kill assay; assay type: cell-based, Staphylococcus aureus; conditions: 5×MIC
Experimental: In order to the mode of killing of methylene lactone compounds, a time kill assay was performed against MRSA USA 400 as described previously. MRSA USA400 cells in logarithmic growth phase (OD600˜1.00) were diluted to 6.03×10^6 colony-forming units (CFU/mL) and exposed to concentrations equivalent to 5×MIC (in triplicate) of 148, 149, 151, 155, 158 and vancomycin in Tryptic soy broth. Aliquots (100 μL) were collected from each treatment after 0, 2, 4, 6, 8, 12, and 24 hours of incubation at 37° C. and subsequently serially diluted in PBS. Bacteria were then transferred to Tryptic soy agar plates and incubated at 37° C. for 18-20 hours before viable CFU/mL was determined (FIG. 1).
DMSO (solvent for the compounds) served as a negative control and vancomycin served as a control drug. The error bars represent standard deviation values obtained from triplicate samples used for each compound/antibiotic studied.

[7] = Staphylococcus aureus, read-out: MIC

Structure (SMILES): C=C(C(=O)OC)C(c1ccc2ccccc2c1)C(O)c1ccc2ccccc2c1 (stereo not shown) [Compound 149]
total protease production [1]: 63%
potency compared with control antibiotic [2]: potency comparable to vancomycin
MIC [2]: 2 µg/mL (≈ 5.23 µM)
MIC [2, 7]: 1 to 2 µg/mL (≈ 2.61 to 5.23 µM)
MIC (MRSA NRS 123): 1 µg/mL (≈ 2.61 µM)
MIC (MRSA NRS 385): 1 µg/mL (≈ 2.61 µM)
MIC (VRSA 10): 8 µg/mL (≈ 20.9 µM)
MIC (MRSA NRS 386): 1 µg/mL (≈ 2.61 µM)
MIC (S. pneumoniae ATCC 51916): 4 µg/mL (≈ 10.5 µM)
MIC [3]: 2 µg/mL (≈ 5.23 µM)
MIC (MRSA NRS 119): 1 µg/mL (≈ 2.61 µM)
MIC [4]: > 64 µg/mL
MIC [5]: > 64 µg/mL
MIC (VRSA 12): 16 µg/mL (≈ 41.8 µM)
MIC (S. aureus ATCC 6538): 1 µg/mL (≈ 2.61 µM)
MIC (S. aureus NRS 107): 1 µg/mL (≈ 2.61 µM)
MIC [6]: 4 µg/mL (≈ 10.5 µM)
time required for complete eradication of the bacterial count (MRSA USA 400; MRSA USA 400, 24-hour incubation): not able to completely eradicate it after 24 hours
reduction in the bacterial count after 6 hours (MRSA USA 400; MRSA USA 400, after 6 hours): 3 log10
reduction in the bacterial count after 6 hours (percent) (MRSA USA 400; MRSA USA 400, after 6 hours): 99.9%

MIC [2]: 8 µg/mL (≈ 26.6 µM)
Structure (SMILES): C=C1C(=O)O[C@H](c2ccccc2)[C@@H]1c1ccc2ccccc2c1 [Compound 152]

MIC [2, 7]: 16 µg/mL (≈ 53.3 µM)
Structure (SMILES): C=C1C(=O)O[C@H](c2ccc3ccccc3c2)[C@@H]1c1ccccc1 [Compound 156]

MIC [2, 7]: > 64 µg/mL
Structure (SMILES): C=C1C(=O)O[C@H](c2ccc3ccccc3c2)[C@@H]1c1cccc2ccccc12 [Compound 157]

MIC [2, 7]: 16 µg/mL (≈ 47.7 µM)
Structure (SMILES): O=C1O[C@H](c2ccccc2)[C@H](c2ccccc2)C1CN1CCCCC1 (stereo partly shown) [Compound 159]

MIC [2, 7]: 16 µg/mL (≈ 41.5 µM)
Structure (SMILES): O=C1O[C@H](c2ccccc2)[C@H](c2ccc3ccccc3c2)C1CN1CCCCC1 (stereo partly shown) [Compound 161]

MIC [2, 7]: 8 µg/mL (≈ 20.8 µM)
Structure (SMILES): O=C1O[C@H](c2cccc3ccccc23)[C@H](c2ccccc2)C1CN1CCCCC1 (stereo partly shown) [Compound 162]

MIC [2, 7]: > 64 µg/mL
Structure (SMILES): O=C1O[C@H](c2cccc3ccccc23)[C@H](c2cccc3ccccc23)C1CN1CCCCC1 (stereo partly shown) [Compound 163]

MIC [2, 7]: > 64 µg/mL
Structure (SMILES): O=C1O[C@H](c2cccc3ccccc23)[C@H](c2ccc3ccccc3c2)C1CN1CCCCC1 (stereo partly shown) [Compound 164]

MIC [2, 7]: 2 µg/mL (≈ 4.59 µM)
Structure (SMILES): O=C1O[C@H](c2ccc3ccccc3c2)[C@H](c2ccc3ccccc3c2)C1CN1CCCCC1 (stereo partly shown) [Compound 167]
potency compared with control antibiotic [2]: potency comparable to vancomycin

MIC [2, 7]: 4 µg/mL (≈ 10.1 µM)
Structure (SMILES): CN(C)CC1C(=O)O[C@H](c2cccc3ccccc23)[C@@H]1c1ccc2ccccc2c1 (stereo partly shown) [Compound 169]

MIC [2, 7]: 8 µg/mL (≈ 21.4 µM)
Structure (SMILES): CCN(CC)CC1C(=O)O[C@H](c2ccccc2)[C@@H]1c1cccc2ccccc12 (stereo partly shown) [Compound 173]

MIC [2, 7]: > 64 µg/mL
Structure (SMILES): C=C1C(=O)OC(C2CCCCC2)C1c1ccccc1 (stereo not shown) [Compound 181]

MIC [2, 7]: 32 µg/mL (≈ 93.7 µM)
Structure (SMILES): O=C1OC(C2CCCCC2)[C@H](c2ccccc2)C1CN1CCCCC1 (stereo partly shown) [Compound 182]

MIC [2, 7]: > 64 µg/mL
Structure (SMILES): C=C1C(=O)OC(C2=CC=CCC2)C1C1CCCCC1 (stereo not shown) [Compound 185]

MIC [2, 7]: > 64 µg/mL
Structure (SMILES): O=C1OC(c2ccccc2)C(C2CCCCC2)C1CN1CCCCC1 (stereo not shown) [Compound 186]

MIC (MRSA NRS 123): 2 µg/mL (≈ 5.93 µM)
MIC (MRSA NRS 385): 2 µg/mL (≈ 5.93 µM)
MIC (VRSA 10): 1 µg/mL (≈ 2.96 µM)
MIC (MRSA NRS 386): 2 µg/mL (≈ 5.93 µM)
MIC (S. pneumoniae ATCC 51916): 2 µg/mL (≈ 5.93 µM)
MIC [3]: 1 µg/mL (≈ 2.96 µM)
MIC (MRSA NRS 119): > 16 µg/mL
MIC [4]: 1 µg/mL (≈ 2.96 µM)
MIC [5]: 2 µg/mL (≈ 5.93 µM)
MIC (VRSA 12): 1 µg/mL (≈ 2.96 µM)
MIC (S. aureus ATCC 6538): 2 µg/mL (≈ 5.93 µM)
MIC (S. aureus NRS 107): 1 µg/mL (≈ 2.96 µM)
MIC [6]: 2 µg/mL (≈ 5.93 µM)
Structure (SMILES): CC(=O)NC[C@H]1CN(c2ccc(N3CCOCC3)c(F)c2)C(=O)O1 [linezolid, reference compound]

Source: patent US20210317099A1, “SAFER, POTENT, AND FAST ACTING ANTIMICROBIAL AGENTS” (Purdue Research Foundation, priority 2020, published 2021)
